# Tests used:
# [1] = tested on: Wistar rats; test: 90-day repeated dose oral toxicity study (OECD TG 408); format: in vivo, rat; conditions: for NOAEL, 90-day repeated-dose toxicity: OECD 408 v 2018, oral gavage
# Description: Healthy and specific pathogen-free male and female (non-pregnant and nulliparous) Wistar Crl: WI(Han) rats were obtained from Charles River Laboratories (Germany). […] Upon arrival at BSL BIOSERVICE, the animals underwent an acclimatisation period of at least 5 days, and they were approximately 15–16 weeks old at the onset of the treatment period.
# [2] = in vivo; conditions: for concentration at 1 h / Tmax / AUC(0-t) / Cmax: Wistar, rat, serum; for concentration at 1 h: oral; for Tmax / AUC(0-t) / Cmax: po; for AUC(0-t) / Cmax / AUC0-1 h/AUC0–t / C1h/Cmax / Clast / tlast: parent compound
# Protocol: These studies were conducted similarly to OECD TG 417 applying 500 and 1000 mg/kg body weight (bw) test item via oral gavage to 10 males and 10 females per dose group. Focus of the toxicokinetic evaluation was on the measurement of the serum concentrations of the parent compounds and their (common) major metabolite p-hydroxybenzoic acid by […] in order to assess the systemic uptake and elimination of the parent compounds and this major metabolite [see also ECHA ([2017a])]. The limit of quantification was determined as 10 ng/mL for all parabens, and as 130 ng/mL for p-hydroxybenzoic acid. […] On account of these major aims, investigations of the faeces and urine were not included in the toxicokinetics screening studies.
# [3] = tested on: bacteria; conditions: cited from earlier work
# [4] = tested on: Wistar rats; test: Higher-tier studies taken together (OECD TG 408, 414, 421/422, 443): NOAEL
# Protocol: All in vivo studies were conducted as oral gavage studies, selecting the oral route as most appropriate route of administration to reflect the worst-case exposure scenario. […] The OECD TG 443 included mating of first generation (F1) offspring to produce a second generation (F2), and the DIT and DNT cohorts.
# [5] = tested on: rats; conditions: read-across from MP; ref ECHA dissemination portal; cited from earlier work
smiles,measurement,setting,value
"CCCOC(=O)c1ccc(O)cc1 [Propyl paraben, Propyl 4-hydroxybenzoate]","NOAEL, 90-day repeated-dose toxicity",[1],NOAEL: 1000 (OECD 408; v 2018) mg/kg body weight/day
same,"NOAEL, 90-day repeated-dose toxicity",[1]; listed as propyl paraben,1000 mg/kg body weight/day
same,Accessory sex organs HP,[1]; P0,NAE / NAE
same,Adrenals HP,[1]; P0,NAE / NAE
same,Adrenals weight,[1]; P0,NAE / NAE
same,Brain weight,[1]; P0,NAE / NAE
same,Cervix HP,[1]; P0,NAE / NAE
same,Coagulating gland HP,[1]; P0,NAE / NAE
same,Coagulating gland weight,[1]; P0,NAE / NAE
same,Epididymis HP,[1]; P0,NAE / NAE
same,Epididymis weight,[1]; P0,NAE / NAE
same,Liver weight,[1]; P0,NAE / NAE
same,Mammary gland HP; females,[1]; P0,NAE / NAE
same,Mammary gland HP; males,[1]; P0,NAE / NAE
same,Oestrus cyclicity,[1]; P0,NAE / NAE
same,Ovary HP,[1]; P0,NAE / NAE
same,Ovary weight,[1]; P0,NAE / NAE
same,Oviduct HP,[1]; P0,NAE / NAE
same,Pituitary HP,[1]; P0,NAE / NAE
same,Pituitary weight,[1]; P0,NAE / NAE
same,Prostate HP,[1]; P0,NAE / NAE
same,Prostate weight,[1]; P0,NAE / NAE
same,Seminal vesicles HP,[1]; P0,NAE / NAE
same,Seminal vesicles weight,[1]; P0,NAE / NAE
same,Testis HP,[1]; P0,NAE / NAE
same,Testis weight,[1]; P0,NAE / NAE
same,Thyroid HP,[1]; P0,NAE / NAE
same,Thyroid stimulating hormone level,[1]; P0,NAE / NAE
same,Thyroid weight,[1]; P0,NAE / NAE
same,Triiodothyronine / thyroxine level,[1]; P0,NAE / NAE
same,Uterus HP (with cervix),[1]; P0,NAE / NAE
same,Uterus weight (with cervix),[1]; P0,NAE / NAE
same,Vagina HP,[1]; P0,NAE / NAE
same,Vaginal smears,[1]; P0,NAE / NAE
same,Signs of systemic toxicity,[1]; sub-chronic (90-day) oral application,did not induce any signs of systemic toxicity
same,concentration at 1 h,"[2]; female, 500 mg/kg",68 ng/mL
same,concentration at 1 h,"[2]; female, 1000 mg/kg",20.2 ng/mL
same,Tmax,"[2]; female, 500 mg/kg",15 min
same,AUC(0-t),"[2]; female, 500 mg/kg, AUC0-1 h",291 ng·h/mL
same,AUC(0-t),"[2]; female, 500 mg/kg, AUC0–t",1120 ng·h/mL
same,Cmax,"[2]; female, 500 mg/kg",1390 ng/mL
same,Tmax,"[2]; female, 1000 mg/kg",10.2 min
same,AUC(0-t),"[2]; female, 1000 mg/kg, AUC0-1 h",156 ng·h/mL
same,AUC(0-t),"[2]; female, 1000 mg/kg, AUC0–t",317 ng·h/mL
same,Cmax,"[2]; female, 1000 mg/kg",940 ng/mL
same,concentration at 1 h,"[2]; male, 500 mg/kg",23 ng/mL
same,concentration at 1 h,"[2]; male, 1000 mg/kg",62.3 ng/mL
same,Tmax,"[2]; male, 500 mg/kg",10.2 min
same,AUC(0-t),"[2]; male, 500 mg/kg, AUC0-1 h",94.9 ng·h/mL
same,AUC(0-t),"[2]; male, 500 mg/kg, AUC0–t",150 ng·h/mL
same,Cmax,"[2]; male, 500 mg/kg",345 ng/mL
same,Tmax,"[2]; male, 1000 mg/kg",10.2 min
same,AUC(0-t),"[2]; male, 1000 mg/kg, AUC0-1 h",175 ng·h/mL
same,AUC(0-t),"[2]; male, 1000 mg/kg, AUC0–t",380 ng·h/mL
same,Cmax,"[2]; male, 1000 mg/kg",735 ng/mL
same,AUC0-1 h/AUC0–t,"[2]; 500 mg/kg, female",26%
same,C1h/Cmax,"[2]; 500 mg/kg, female",4.9%
same,Clast,"[2]; 500 mg/kg, female",136 ng/mL
same,tlast,"[2]; 500 mg/kg, female",8.0 h
same,AUC0-1 h/AUC0–t,"[2]; 500 mg/kg, male",63%
same,C1h/Cmax,"[2]; 500 mg/kg, male",6.7%
same,Clast,"[2]; 500 mg/kg, male",13.6 ng/mL
same,tlast,"[2]; 500 mg/kg, male",4.0 h
same,AUC0-1 h/AUC0–t,"[2]; 1000 mg/kg, female",49%
same,C1h/Cmax,"[2]; 1000 mg/kg, female",2.1%
same,Clast,"[2]; 1000 mg/kg, female",11.6 ng/mL
same,tlast,"[2]; 1000 mg/kg, female",8.0 h
same,AUC0-1 h/AUC0–t,"[2]; 1000 mg/kg, male",46%
same,C1h/Cmax,"[2]; 1000 mg/kg, male",8.5%
same,Clast,"[2]; 1000 mg/kg, male",14.3 ng/mL
same,tlast,"[2]; 1000 mg/kg, male",8.0 h
same,Mutagenicity in bacteria classification,[3],Not mutagenic [c] (OECD 471; 2018)
same,"NOAEL, repeated-dose toxicity and DART, all higher-tier studies","[4]; limit dose, oral gavage",1000 mg/kg bw/day
same,NOAEL: Accessory sex organs HP,[4]; over all higher-tier studies,1000 / 1000 mg/kg bw/day
same,NOAEL: Adrenals HP,[4]; over all higher-tier studies,1000 / 1000 mg/kg bw/day
same,NOAEL: Adrenals weight,[4]; over all higher-tier studies,1000 / 1000 mg/kg bw/day
same,NOAEL: Age at balano-preputial separation,[4]; over all higher-tier studies,1000 / 1000 mg/kg bw/day
same,NOAEL: Age at vaginal opening,[4]; over all higher-tier studies,1000 / 1000 mg/kg bw/day
same,NOAEL: Anogenital distance,[4]; over all higher-tier studies,1000 / 1000 mg/kg bw/day
same,NOAEL: Auditory startle,[4]; over all higher-tier studies,1000 / 1000 mg/kg bw/day
same,NOAEL: Brain HP,[4]; over all higher-tier studies,1000 / 1000 mg/kg bw/day
same,NOAEL: Brain morphometric evaluation,[4]; over all higher-tier studies,1000 / 1000 mg/kg bw/day
same,NOAEL: Brain weight,[4]; over all higher-tier studies,1000 / 1000 mg/kg bw/day
same,NOAEL: Cervix HP,[4]; over all higher-tier studies,1000 / 1000 mg/kg bw/day
same,NOAEL: Coagulating gland HP,[4]; over all higher-tier studies,1000 / 1000 mg/kg bw/day
same,NOAEL: Coagulating gland weight,[4]; over all higher-tier studies,1000 / 1000 mg/kg bw/day
same,NOAEL: Colloid area (thyroid HP),[4]; over all higher-tier studies,1000 / 1000 mg/kg bw/day
same,NOAEL: Dystocia,[4]; over all higher-tier studies,1000 / 1000 mg/kg bw/day
same,NOAEL: Epididymis HP,[4]; over all higher-tier studies,1000 / 1000 mg/kg bw/day
same,NOAEL: Epididymis weight,[4]; over all higher-tier studies,1000 / 1000 mg/kg bw/day
same,NOAEL: Fertility,[4]; over all higher-tier studies,1000 / 1000 mg/kg bw/day
same,NOAEL: Foetal development,[4]; over all higher-tier studies,1000 / 1000 mg/kg bw/day
same,NOAEL: Functional observation battery,[4]; over all higher-tier studies,1000 / 1000 mg/kg bw/day
same,NOAEL: Genital abnormalities,[4]; over all higher-tier studies,1000 / 1000 mg/kg bw/day
same,NOAEL: Gestation length,[4]; over all higher-tier studies,1000 / 1000 mg/kg bw/day
same,NOAEL: Litter / pup weight,[4]; over all higher-tier studies,1000 / 1000 mg/kg bw/day
same,NOAEL: Litter size,[4]; over all higher-tier studies,1000 / 1000 mg/kg bw/day
same,NOAEL: Litter viability,[4]; over all higher-tier studies,1000 / 1000 mg/kg bw/day
same,NOAEL: Liver weight,[4]; over all higher-tier studies,1000 / 1000 mg/kg bw/day
same,NOAEL: Mammary gland HP; females,[4]; over all higher-tier studies,1000 / 1000 mg/kg bw/day
same,NOAEL: Mammary gland HP; males,[4]; over all higher-tier studies,1000 / 1000 mg/kg bw/day
same,NOAEL: Motor activity,[4]; over all higher-tier studies,1000 / 1000 mg/kg bw/day
same,NOAEL: Nipple development,[4]; over all higher-tier studies,1000 / 1000 mg/kg bw/day
same,"NOAEL: No. of implantations, corpora lutea",[4]; over all higher-tier studies,1000 / 1000 mg/kg bw/day
same,NOAEL: No. of live births,[4]; over all higher-tier studies,1000 / 1000 mg/kg bw/day
same,NOAEL: No. of ovarian follicles,[4]; over all higher-tier studies,1000 / 1000 mg/kg bw/day
same,NOAEL: Oestrus cyclicity,[4]; over all higher-tier studies,1000 / 1000 mg/kg bw/day
same,NOAEL: Offspring: learning & memory,[4]; over all higher-tier studies,1000 / 1000 mg/kg bw/day
same,NOAEL: Ovary HP,[4]; over all higher-tier studies,1000 / 1000 mg/kg bw/day
same,NOAEL: Ovary weight,[4]; over all higher-tier studies,1000 / 1000 mg/kg bw/day
same,NOAEL: Oviduct HP,[4]; over all higher-tier studies,1000 / 1000 mg/kg bw/day
same,NOAEL: Pituitary HP,[4]; over all higher-tier studies,1000 / 1000 mg/kg bw/day
same,NOAEL: Pituitary weight,[4]; over all higher-tier studies,1000 / 1000 mg/kg bw/day
same,NOAEL: Postimplantation loss,[4]; over all higher-tier studies,1000 / 1000 mg/kg bw/day
same,NOAEL: Pre-implantation loss,[4]; over all higher-tier studies,1000 / 1000 mg/kg bw/day
same,NOAEL: Presence of anomalies,[4]; over all higher-tier studies,1000 / 1000 mg/kg bw/day
same,NOAEL: Prostate HP,[4]; over all higher-tier studies,1000 / 1000 mg/kg bw/day
same,NOAEL: Prostate weight,[4]; over all higher-tier studies,1000 / 1000 mg/kg bw/day
same,NOAEL: Pup development,[4]; over all higher-tier studies,1000 / 1000 mg/kg bw/day
same,NOAEL: Reproduction,[4]; over all higher-tier studies,1000 / 1000 mg/kg bw/day
same,NOAEL: Seminal vesicles HP,[4]; over all higher-tier studies,1000 / 1000 mg/kg bw/day
same,NOAEL: Seminal vesicles weight,[4]; over all higher-tier studies,1000 / 1000 mg/kg bw/day
same,NOAEL: Sperm morphology,[4]; over all higher-tier studies,1000 / 1000 mg/kg bw/day
same,NOAEL: Sperm motility,[4]; over all higher-tier studies,1000 / 1000 mg/kg bw/day
same,NOAEL: Sperm numbers,[4]; over all higher-tier studies,1000 / 1000 mg/kg bw/day
same,NOAEL: Testis HP,[4]; over all higher-tier studies,1000 / 1000 mg/kg bw/day
same,NOAEL: Testis weight,[4]; over all higher-tier studies,1000 / 1000 mg/kg bw/day
same,NOAEL: Thyroid HP,[4]; over all higher-tier studies,1000 / 1000 mg/kg bw/day
same,NOAEL: Thyroid stimulating hormone level,[4]; over all higher-tier studies,1000 / 1000 mg/kg bw/day
same,NOAEL: Thyroid weight,[4]; over all higher-tier studies,1000 / 1000 mg/kg bw/day
same,NOAEL: Time to mating,[4]; over all higher-tier studies,1000 / 1000 mg/kg bw/day
same,NOAEL: Triiodothyronine / thyroxine level,[4]; over all higher-tier studies,1000 / 1000 mg/kg bw/day
same,NOAEL: Uterus HP (with cervix),[4]; over all higher-tier studies,1000 / 1000 mg/kg bw/day
same,NOAEL: Uterus weight (with cervix),[4]; over all higher-tier studies,1000 / 1000 mg/kg bw/day
same,NOAEL: Vagina HP,[4]; over all higher-tier studies,1000 / 1000 mg/kg bw/day
same,NOAEL: Vaginal smears,[4]; over all higher-tier studies,1000 / 1000 mg/kg bw/day
same,Genetic toxicity in vivo (rats) classification,[5],Not clastogenic (read-across from MP)

# From paper PMC7904550, “Application of grouping and read-across for the evaluation of parabens of different chain lengths with a particular focus on endocrine properties” (Archives of Toxicology, 2021)
